Data: PubChem BioAssay (NCI)
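Five compound concentrations were applied to cells in 96-well plates for 48 hours; endpoints were derived by simple linear interpolation of the resulting dose-response curve. Definition used: TGI = concentration required for complete inhibition of growth.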

How the values were obtained:
Test in all cases: NCI anticancer screen, dose series, 48 h
CAKI-1 renal = system: CAKI-1 renal
OVCAR-4 ovarian = system: OVCAR-4 ovarian
SNB-19 CNS = system: SNB-19 CNS
OVCAR-8 ovarian = system: OVCAR-8 ovarian
K-562 leukemia = system: K-562 leukemia
NCI/ADR-RES ovarian = system: NCI/ADR-RES ovarian
RXF 393 renal = system: RXF 393 renal
M19-MEL melanoma = system: M19-MEL melanoma
LXFL 529 NSCLC = system: LXFL 529 NSCLC
DMS 114 small cell lung = system: DMS 114 small cell lung
DMS 273 small cell lung = system: DMS 273 small cell lung
HOP-18 NSCLC = system: HOP-18 NSCLC
DLD-1 colon = system: DLD-1 colon
KM20L2 colon = system: KM20L2 colon
SNB-78 CNS = system: SNB-78 CNS
RXF-631 renal = system: RXF-631 renal
XF 498 CNS = system: XF 498 CNS

| SMILES | TGI (CAKI-1 renal) [µM] | TGI (OVCAR-4 ovarian) [µM] | TGI (SNB-19 CNS) [µM] | TGI (OVCAR-8 ovarian) [µM] | TGI (K-562 leukemia) [µM] | TGI (NCI/ADR-RES ovarian) [µM] | TGI (RXF 393 renal) [µM] | TGI (M19-MEL melanoma) [µM] | TGI (LXFL 529 NSCLC) [µM] | TGI (DMS 114 small cell lung) [µM] | TGI (DMS 273 small cell lung) [µM] | TGI (HOP-18 NSCLC) [µM] | TGI (DLD-1 colon) [µM] | TGI (KM20L2 colon) [µM] | TGI (SNB-78 CNS) [µM] | TGI (RXF-631 renal) [µM] | TGI (XF 498 CNS) [µM] |
| --- | --- | --- | --- | --- | --- | --- | --- | --- | --- | --- | --- | --- | --- | --- | --- | --- | --- |
| CCCCOP(=O)(OCCCC)/C(C#N)=C/c1ccc(C)o1 | > 100 | > 100 | > 100 | > 100 | 71.3 | 64.4 | 86.1 |  |  |  |  |  |  |  |  |  |  |
| CC(C)=CCC/C(C)=C/CC/C(C)=C/CC/C=C(\C)CC/C=C(\C)CCC1SC1(C)C (configuration not stated) | > 100 | > 100 | > 100 | > 100 | > 100 |  | > 100 | > 100 | > 100 | > 100 | > 100 | > 100 | > 100 | > 100 | > 100 |  |  |
| O=C1NCC2(CCN(Cc3ccccc3)CC2)N1 | > 100 | > 100 | > 100 | > 100 | > 100 | > 100 | > 100 |  |  |  |  |  |  |  |  |  |  |
| CNc1nnnn1C1OC(CO)C(O)C1O (configuration not stated) | > 100 |  |  | > 100 | > 100 |  | > 100 | > 100 | > 100 | > 100 | > 100 |  | > 100 | > 100 | > 100 | > 100 | 83.4 |
| C[C@@H](C(=O)O)c1ccc(-c2ccccc2)c(F)c1 | > 100 | > 100 | > 100 | > 100 | > 100 | > 100 | > 100 |  |  |  |  |  |  |  |  |  |  |
| Cc1ccc(-c2c(C#N)c(-c3ccc([N+](=O)[O-])cc3)c(C#N)c(=O)n2NS(=O)(=O)c2ccc(C)cc2)cc1 | > 100 | > 100 | > 100 | > 100 | > 100 | > 100 | > 100 |  |  |  |  |  |  |  |  |  |  |
| Cc1ccccc1N=Cc1ccc(N(CCC#N)S(=O)(=O)c2ccccc2)cc1 | > 100 | > 100 | > 100 | > 100 | > 100 |  | > 100 | > 100 | > 100 | > 100 | > 100 | > 100 | > 100 | > 100 | > 100 | > 100 | > 100 |
| CSC(=NC1CC(n2cc(C)c(=O)[nH]c2=O)OC1CO)NC#N (configuration not stated) | > 100 | > 100 | > 100 | > 100 | > 100 | > 100 | > 100 |  |  |  |  |  |  |  |  |  |  |
| Brc1ccccc1/C=C\C1(c2ccccc2)OCCO1 | 16.3 | 14.8 | 28.9 | 24.5 | > 100 | 32.7 | 27.7 |  |  |  |  |  |  |  |  |  |  |
| OC(c1ccsc1)c1cc2ccccc2s1 (configuration not stated) | > 10 | > 10 | > 10 | > 10 | > 10 | > 10 | > 10 |  |  |  |  |  |  |  |  |  |  |
| COc1ccc(-c2nc(N(C)C)c3ccccc3n2)cc1 | > 100 | > 100 | > 100 | > 100 | 40.7 | 36.7 | 24.7 |  |  |  |  |  |  |  |  |  |  |
| CN(C)CCSC(=Nc1ccccc1)N1C=COC=C1 | > 100 | > 62 | > 100 | > 63.3 | > 100 |  | 72.8 | 32.5 | 30.6 | 27.9 | 35.7 | > 100 | 32.4 | > 100 | 90.1 |  | 85.3 |
| C[C@@H]1CCC2[C@@H](C)[C@H](O[C@H]3O[C@@H]4O[C@@]5(C)CCC6[C@H](C)CCC([C@H]3C)[C@]64OO5)O[C@@H]3O[C@@]4(C)CCC1[C@@]23OO4 (some centres not stated) | 13.9 | 16.4 | 25.2 | 16.7 | > 100 | 15.5 | 21.4 |  |  |  |  |  |  |  |  |  |  |
| CC/C(Cl)=N\OC(=O)Nc1ccccc1OC(F)(F)F | 3.33 | 41.6 | 53.9 | 35.9 | 4.55 | 35.5 | 32.6 |  |  |  |  |  |  |  |  |  |  |
| CC1=NN(c2nc(N)nc(C(C)Sc3cc(Cl)c(C)cc3S(N)(=O)=O)n2)C(C)(C)C1 (configuration not stated) | > 10 | > 10 | > 10 | > 10 | > 10 | > 10 | > 10 |  |  |  |  |  |  |  |  |  |  |
| Nc1ccn([C@H]2CO[C@@H](CO)O2)c(=O)n1 | 23 | > 100 | > 100 | > 100 | > 100 | > 100 | > 83.3 |  |  |  |  |  |  |  |  |  |  |
| CC1=NN(C(=O)CC(=O)Nc2ccccc2C)C(=O)C1N=Nc1ccc(S(=O)(=O)c2ccc(N=NC3C(=O)N(C(=O)CC(=O)Nc4ccccc4C)N=C3C)cc2)cc1 (configuration not stated) | > 100 | > 100 | > 100 | > 100 | > 100 | > 100 | > 100 |  |  |  |  |  |  |  |  |  |  |
| CC(C)(C)c1ccc(-c2nc3ccccc3c(=O)o2)cc1 | > 100 | > 100 | > 100 | > 100 | > 100 | > 100 | > 100 |  |  |  |  |  |  |  |  |  |  |

| SMILES | TGI (CAKI-1 renal) [µM] | TGI (OVCAR-4 ovarian) [µM] | TGI (SNB-19 CNS) [µM] | TGI (OVCAR-8 ovarian) [µM] | TGI (K-562 leukemia) [µM] | TGI (NCI/ADR-RES ovarian) [µM] | TGI (RXF 393 renal) [µM] | TGI (M19-MEL melanoma) [µM] | TGI (LXFL 529 NSCLC) [µM] | TGI (DMS 114 small cell lung) [µM] | TGI (DMS 273 small cell lung) [µM] | TGI (HOP-18 NSCLC) [µM] | TGI (DLD-1 colon) [µM] | TGI (KM20L2 colon) [µM] | TGI (SNB-78 CNS) [µM] | TGI (RXF-631 renal) [µM] | TGI (XF 498 CNS) [µM] |
| --- | --- | --- | --- | --- | --- | --- | --- | --- | --- | --- | --- | --- | --- | --- | --- | --- | --- |
| Cc1cc(=O)oc2c(CNC(C)C(=O)O)c(O)ccc12 (configuration not stated) | > 100 | > 100 | > 100 | > 100 | > 100 | > 100 | > 100 |  |  |  |  |  |  |  |  |  |  |
| COc1ccc(C(=O)/C=C2\c3ccccc3C(=O)N2C)cc1 | > 100 | > 100 | > 100 | > 100 | > 100 | > 100 | 82.8 |  |  |  |  |  |  |  |  |  |  |
| Cc1ccc(S(=O)(=O)c2c(N)c3nccn3c3nc4ccccc4nc23)cc1 | > 100 | > 100 | > 100 | > 100 | > 100 |  |  | > 100 | > 100 | > 100 | > 100 |  | > 100 | > 100 | > 100 |  | > 100 |
| CC1(C)N(OC2CCCCO2)C(c2ccccc2)C(c2ccccc2)=[N+]1[O-] (configuration not stated) | > 100 | > 100 | > 100 | > 100 | > 100 | > 100 | > 100 |  |  |  |  |  |  |  |  |  |  |
| CC1=C2C(=O)C3[C@@H](CCC4=CC(=O)CC[C@@]43C)C2CC[C@]12O[C@@H]1C[C@H](C)CN[C@H]1[C@H]2C (some centres not stated) | > 100 | > 100 | > 100 | > 100 | 36.4 |  | > 100 | > 100 | > 100 | 28.9 | 42.8 | > 100 | > 100 | > 100 |  |  | 94.4 |
| Oc1ccc(-c2c3ccccc3c(-c3ccc(OCCBr)cc3)c3ccccc23)cc1 | 67.1 | 58.3 | 84.3 | 64 | 97.4 | 75.6 | 64.3 |  |  |  |  |  |  |  |  |  |  |
| C[C@H](CCC(=O)O[C@@H]1CC[C@@]2(C)C(CC[C@H]3[C@@H]4CC[C@H]([C@H](C)CCc5nc6ccccc6[nH]5)[C@@]4(C)CC[C@@H]32)C1)[C@H]1CC[C@H]2[C@@H]3CCC4C[C@H](O)CC[C@]4(C)[C@H]3CC[C@]12C (some centres not stated) | > 100 | > 100 | 61.2 | > 100 | > 100 | > 100 | > 100 |  |  |  |  |  |  |  |  |  |  |
| CN(C)C(=S)N/N=C\C(=N/NC(=S)N(C)C)c1ccccc1 | > 100 | > 100 | > 100 | > 100 | > 100 | > 25.1 | > 27.8 |  |  |  |  |  |  |  |  |  |  |
| Cn1c(=O)nc2n(CCO)ccnc-2c1=O | > 100 | > 100 | > 100 | > 100 | > 100 | > 100 | > 100 |  |  |  |  |  |  |  |  |  |  |
| CC(=O)O[C@H]1C(=O)[C@@]2(C)[C@H]([C@H](OC(=O)c3ccccc3)[C@]3(O)C[C@H](OC(=O)[C@H](O)[C@@H](NC(=O)c4ccccc4)C4CCCCC4)C(C)=C1C3(C)C)[C@]1(OC(C)=O)CO[C@@H]1C[C@@H]2O | > 100 | 50.5 | > 100 | 98.8 | > 51.9 | 11.4 | 0.013 |  |  |  |  |  |  |  |  |  |  |
| OCCOCCN1CCN(c2nc(N3CCCC3)c3nc(Cl)c(NCc4ccccc4)nc3n2)CC1 | 31.1 | 30.8 | 29.8 | 32.2 | 16.4 | 31.1 | 11.8 |  |  |  |  |  |  |  |  |  |  |
| Oc1ccc2ccccc2c1-c1c(Nc2ccccc2)ccc2ccccc12 | 28.1 | 25.4 | 37.4 | 33.8 | 41 | > 51.3 | 34.3 |  |  |  |  |  |  |  |  |  |  |
| Cc1ccc(C2(C)NC(=S)N(NC(N)=S)C2=S)cc1 (configuration not stated) |  | > 100 | > 100 | > 100 | > 100 |  | > 100 | > 100 | > 100 | > 100 | > 100 |  | > 100 | > 100 |  | > 100 | > 100 |
| O=C(O)CN1CCNCCN(CC(=O)O)CCNCC1 | > 100 | > 100 | > 100 | > 100 | > 100 | > 100 | > 100 |  |  |  |  |  |  |  |  |  |  |
| CC(=O)Nc1ccc2c3c(cc(O)c2c1)N(C(=O)CCCC(=O)Nc1ccc2c4c(cc(O)c2c1)N(C(=O)OC(C)(C)C)CC4CCl)CC3CCl (configuration not stated) | > 50 | 6.4 | > 15 | > 50 | > 31.4 | > 50 | 10.6 |  |  |  |  |  |  |  |  |  |  |
| Cc1ccc(S(=O)(=O)NC(=O)C2(Br)S(=O)(=O)OCCOS2(=O)=O)cc1 |  | > 100 | > 100 | > 100 | > 100 |  | > 100 | > 100 | > 100 | > 100 | > 100 |  | > 100 | > 100 | > 100 |  | > 100 |
| O=c1n(CCCN2CCN(c3cccc(Cl)c3)CC2)nc2n1-c1ccc3ccccc3c1SC2 | > 100 | > 100 | > 100 | > 100 | > 100 | > 100 | > 100 |  |  |  |  |  |  |  |  |  |  |
| CCOC(=O)C1=C(OS(=O)(=O)C(F)(F)F)CCCC1 | > 100 | > 100 | > 100 | > 100 | > 100 | > 100 | > 100 |  |  |  |  |  |  |  |  |  |  |
